Assay results: PubChem BioAssay (NCI)
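How tested: cells in 96-well plates exposed to compound for 48 hours at five concentrations. At the GI50, growth is halved. The concentration for full growth arrest is given as TGI.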

Columns and labels:
Test in all cases: NCI-60 cell line screen, 48 h
HCT-116 colon = test system: HCT-116 colon
NCI-H23 lung = test system: NCI-H23 lung
SK-MEL-5 melanoma = test system: SK-MEL-5 melanoma
NCI-H226 lung = test system: NCI-H226 lung
MALME-3M melanoma = test system: MALME-3M melanoma
CAKI-1 renal = test system: CAKI-1 renal
SF-268 CNS = test system: SF-268 CNS
M14 melanoma = test system: M14 melanoma
HL-60(TB) leukemia = test system: HL-60(TB) leukemia
MDA-N = test system: MDA-N

SMILES | TGI (HCT-116 colon) | TGI (NCI-H23 lung) | TGI (SK-MEL-5 melanoma) | TGI (NCI-H226 lung) | TGI (MALME-3M melanoma) | TGI (CAKI-1 renal) | TGI (SF-268 CNS) | TGI (M14 melanoma) | TGI (HL-60(TB) leukemia) | TGI (MDA-N) | GI50 (NCI-H226 lung)
CC1(CCCC2(C)CCNC2=O)OCCO1 (stereo unspecified) | > 10 µM | > 10 µM | > 10 µM | > 10 µM | > 10 µM | > 10 µM | > 10 µM | > 10 µM | > 10 µM | > 10 µM | –
O=C1Cc2c(-c3ccc(Cl)cc3)cc(-c3ccccc3)nc2-c2ccccc2N1 | 15.3 µM | 33.8 µM | 21 µM | 44.9 µM | > 64 µM | 19.4 µM | 48.9 µM | > 100 µM | > 100 µM | 55.8 µM | –
Cc1cc(O)c(C(C)C)cc1NC(=O)Nc1cccc2ccccc12 | 36.6 µM | 46.3 µM | 27.4 µM | 46.7 µM | 40.3 µM | 30.7 µM | 40.9 µM | 40 µM | > 100 µM | 27.6 µM | –
CC(=O)NC1(C)CCC(C(C)(C)NC(C)=O)CC1 (stereo unspecified) | > 100 µM | > 100 µM | > 100 µM | > 100 µM | > 100 µM | > 100 µM | > 100 µM | > 100 µM | > 100 µM | > 100 µM | –
Brc1ccc2c(-c3nc(-c4c[nH]c5ccccc45)cs3)c[nH]c2c1 | > 100 µM | > 88 µM | 57.1 µM | > 100 µM | > 100 µM | > 100 µM | > 100 µM | > 100 µM | > 100 µM | > 100 µM | –
Oc1nc(N/N=C/c2c[nH]c3ccccc23)[nH]c1/C=C1\C=Nc2ccccc21 | 36.7 µM | 38.5 µM | 38.1 µM | 34.4 µM | 33.8 µM | > 100 µM | 43.1 µM | 75.9 µM | 32.9 µM | > 100 µM | –
CC(=O)Nc1ccc2c(C(=O)O)c(C)c(=O)[nH]c2n1 | > 100 µM | > 100 µM | > 100 µM | > 100 µM | > 100 µM | > 100 µM | > 100 µM | > 100 µM | > 100 µM | > 100 µM | –
C/C(O)=C/c1nc2ccccc2nc1/C=C(/C)O | 39.3 µM | > 100 µM | 35.4 µM | 61.3 µM | 50.7 µM | > 100 µM | 64.6 µM | 44.4 µM | 56.4 µM | > 100 µM | –
O=C(Nc1ccccc1)c1cc2c(cc1Cl)Sc1nccn1S2(=O)=O | > 54.4 µM | 53.8 µM | 31.1 µM | > 100 µM | 74.3 µM | 7.53 µM | > 89.8 µM | > 58.2 µM | 56.1 µM | > 100 µM | 28.6 µM
Nn1c(Cc2ccc(Cl)cc2)n[nH]c1=O | > 100 µM | > 100 µM | > 100 µM | > 100 µM | > 100 µM | > 100 µM | > 100 µM | > 100 µM | > 100 µM | > 100 µM | –
CCCC1NC(C#N)(C#N)C(CCC)NC1(C#N)C#N (stereo unspecified) | > 37.1 µM | > 51.3 µM | > 100 µM | 81.1 µM | > 100 µM | > 50.4 µM | > 48.7 µM | > 60.6 µM | 0.343 µM | > 55 µM | –
[O-][n+]1onc2c3nn(-c4ccccc4)nc3ccc21 | > 100 µM | > 100 µM | > 100 µM | > 100 µM | > 100 µM | > 100 µM | > 100 µM | > 100 µM | 8.68 µM | > 100 µM | –
CC/C(Cl)=N\OC(=O)Nc1ccc(OC)cc1 | 12 µM | 38.6 µM | 14.6 µM | 28.3 µM | 10.7 µM | 3.07 µM | 32.1 µM | 9.77 µM | 4.36 µM | 11.3 µM | –
